Data from US20100041903A1, “Ozonized Surfactant” (ERC TECHNOLOGY INC., priority 2006, published 2010).

Columns and labels:
Escherichia coli = assay: Minimum inhibitory concentration test; type: cell-based; conditions: 24 H, 30° C., Bouillon liquid medium, 1 × 10^7/mL
Source text: (§1) In order to check the antibacterial and antifungal performance of the ozonized surfactant according to the present invention, bacteriostatic and bactericidal effects of the ozonized surfactant against five kinds of microorganisms were examined. The five kinds of target microorganisms were Staphyrococcus aureus as a prokaryotic gram-positive bacterium, Escherichia coli as a prokaryotic gram-negative bacterium, Saccharomyces cerevisiae and Trichophyton mentagrophytes as fungi which are eukaryotic microorganisms, and Cladosporium cladosporioides. One loopful of each strain was inoculated in a medium optimum for the strain, and cultured under culture conditions optimum for the strain to prepare a cell suspension for inoculation. […] 9 mL of each medium shown in Table 1 was dispensed into L-shaped test tubes for a biophotorecorder, and was then sterilized by steam. […] 0.1 mL of the cell suspension for inoculation was inoculated into the graduated dilution series to be tested (the initial number of cells of each microorganism is shown in Table 1). […] In the following tests, they were sterilized in the same manner. [table] […] Another graduated dilution series was prepared between the temporary minimum inhibitory concentration and the concentration of the ozonized surfactant nearest to the temporary minimum inhibitory concentration, at which turbidity occurred. Then, the same operation as described above was again carried out. […] It is to be noted that this MIC test against these five kinds of microorganisms was carried out also using, as a control, the surfactant solution not subjected to ozone treatment.

Staphyrococcus aureus = assay: Minimum inhibitory concentration test; type: cell-based; conditions: 24 H, 37° C., Bouillon liquid medium, 1 × 10^7/mL
Source text: as §1

Saccharomyces cerevisiae = assay: Minimum inhibitory concentration test; type: cell-based; conditions: 48 H, 28° C., YM liquid medium, 1 × 10^6/mL
Source text: as §1

[1] = tested on: Trichophyton mentagrophytes; assay: Minimum inhibitory concentration test; type: cell-based; conditions: 96 H, 25° C., Sabouraud medium, 1 × 10^5/mL
Source text: as §1

[2] = tested on: Cladosporium cladosporioides; assay: Minimum inhibitory concentration test; type: cell-based; conditions: 96 H, 25° C., Sabouraud medium, 1 × 10^5/mL
Source text: as §1

[3] = Surface-active property test (contact angle on polyvinyl chloride plate); type: physicochemical; conditions: Surfactant not subjected to ozone treatment; 1 wt % aqueous solution on polyvinyl chloride plate
Procedure: The surface-active properties of ozonized surfactants were determined in the following manner. 1 wt % of aqueous solutions of surfactants (Tween 80, polyethylene glycol 10 oleyl ether, and polyethylene glycol 20 oleyl ether (manufactured by Wako Pure Chemical Industries, Ltd.)) were prepared, and each of the solutions was dropped on a polyvinyl chloride plate to measure a contact angle (θ) using a contact angle meter CA-VP (manufactured by Kyowa Interface Science Co., Ltd.). The same measurement was carried out for the ozonized surfactants obtained in Examples 1, 2 and 4.

| Substance | minimum inhibitory concentration (Escherichia coli) [% by weight] | minimum inhibitory concentration (Staphyrococcus aureus) [% by weight] | minimum inhibitory concentration (Saccharomyces cerevisiae) [% by weight] | minimum inhibitory concentration [1] [% by weight] | minimum inhibitory concentration [2] [% by weight] | Contact angle (θ) [3] |
| --- | --- | --- | --- | --- | --- | --- |
| Polyethylene glycol 10 oleyl ether [Polyethylene glycol (10) oleyl ether] | >1 | >1 | >1 | >1 | >1 | 51.9 degree (°) |
| polyethylene glycol 20 oleyl ether [Polyethylene glycol (20) oleyl ether] |  |  |  |  |  | 59.4 degree (°) |
